# Measured values reported in patent publication US20070010486A1 (priority 2005, published 2007).
# Structures can show the parent of a compound that is named as a salt.
# Details: use of CAPTISOL
compound,measurement,value
OC(COc1cccc2ncccc12)CN1CCN([C@@H]2c3ccccc3[C@@H]3[C@H](c4ccccc42)C3(F)F)CC1 (stereo partly shown) [zosuquidar trihydrochloride],increase in water solubility,> 5 fold
